Measured values reported in ChEMBL document CHEMBL5576147, “Development of Brain Penetrant Pyridazine Pantothenate Kinase Activators” (J Med Chem, 2024).

Columns and labels:
in vitro [1] = test: in vitro; design: dose or concentration left out as unconfirmed; conditions: mouse, liver microsomes
in vitro [2] = test: in vitro; design: dose or concentration left out as unconfirmed; conditions: human, liver microsomes

CLint scaled at 4 h (in vitro [1]): 408 mL/min/kg | CLint scaled at 4 h (in vitro [2]): 175 mL/min/kg
SMILES: CC(C)c1ccc(CC(=O)N2CCN(c3ccc(C#N)nn3)CC2)cc1
